Assay results reported in patent US20240325398A1, “COMBINATION THERAPIES” (Infinity Pharmaceuticals, Inc., priority 2014, published 2024).

Key:
SUDHL6 = assay: Compound 1 with dexamethasone, CellTiter-Glo viability 72 h, combination index; type: cell-based; settings: combination with Compound 1; SUDHL6 cells; CellTiter-Glo 72 h; FIG. 12
Method: The effects of Compound 1 with dexamethasone were examined in a panel of cell lines. Cells were cultured and assayed as follows. Compound 1 was serially diluted with cell culture medium and various DMSO concentrations. The top concentration of Compound 1 exposed to cells was 3 uM for cell lines other than WSU-NHL and DOHH2. For WSU-NHL and DOHH2 cell lines, the top concentration of Compound 1 exposed to the cells was 0.3 uM. Dexamethasone was serially diluted in culture media and phosphate buffered saline (PBS). The top concentration of dexamethasone used on cells was 3 uM. Cells were at least 73% viable and were counted and diluted for plating at a density of about 92,000 cell/mL, 130 uL cells per well in 96 well plates for SUDHL6, Karpas 422, SUDHL4, WSU-NHL, RL, and DOHH2 cell lines. The SUDHL10 cell line was plated at a density of about 46,000 cells/mL, 130 uL cells per well in 96 well plates.
Various concentrations of Compound 1 and various combinations of dexamethasone were added to various wells of cells. Single agents (Compound 1 or dexamethasone alone) were also added to some wells of cells. Cells were incubated with compounds for 72 hours. To assay for effects of the compounds on cell viability, a CellTiter-Glo® luminescent cell viability assay (commercially available) was used. To each plate of cells, 100 uL CellTiter-Glo reagent was added, incubated, and luminescence quantified using a […].
The result for cell line SUDHL6 is depicted in FIG. 12 and in Table 12. […] Table 12 depicts combination index (CI) values for different combinations of dexamethasone/Compound 1 concentrations.

SU-DHL-4-epst = assay: Combination study, ATPLite 72 h, dose matrix (Synergy Score, CI50); settings: combination with Compound 1, 72 h
DOHH-2 = assay: as above; settings: combination with Compound 1, 72 h
Farage = assay: as above; settings: combination with Compound 1; Farage; 72 h
SU-DHL-10-epst = assay: as above; settings: combination with Compound 1, 72 h
RL = assay: as above; settings: combination with Compound 1, 72 h
KARPAS-422 = assay: as above; settings: combination with Compound 1, 72 h

C[C@@H]1C[C@H]2[C@@H]3CCC4=CC(=O)C=C[C@]4(C)[C@@]3(F)[C@@H](O)C[C@]2(C)[C@@]1(O)C(=O)CO [dexamethasone, (8S,9R,10S,11S,13S,14S,16R,17R)-9-Fluoro-11,17-dihydroxy-17-(2-hydroxyacetyl)-10,13,16-trimethyl-6,7,8,9,10,11,12,13,14,15,16,17-dodecahydro-3H-cyclopenta[a]phenanthren-3-one]
synergy of the combination (SUDHL6): synergy
CI50 growth inhibition (SU-DHL-4-epst): T (T=0.5 to <0.7)
CI50 inhibition (SU-DHL-4-epst): T (T=0.5 to <0.7)
Synergy Score growth inhibition (SU-DHL-4-epst): A3 (A3=>3)
Synergy Score inhibition (SU-DHL-4-epst): A3 (A3=>3)
CI50 growth inhibition (DOHH-2): S (S=0.01 to <0.5)
CI50 inhibition (DOHH-2): T (T=0.5 to <0.7)
Synergy Score growth inhibition (DOHH-2): A3 (A3=>3)
Synergy Score inhibition (DOHH-2): A3 (A3=>3)
CI50 growth inhibition (Farage): U (U=0.7 to <1)
CI50 inhibition (Farage): T (T=0.5 to <0.7)
Synergy Score growth inhibition (Farage): A3 (A3=>3)
Synergy Score inhibition (Farage): A3 (A3=>3)
CI50 growth inhibition (SU-DHL-10-epst): S (S=0.01 to <0.5)
CI50 inhibition (SU-DHL-10-epst): S (S=0.01 to <0.5)
Synergy Score growth inhibition (SU-DHL-10-epst): A3 (A3=>3)
Synergy Score inhibition (SU-DHL-10-epst): A3 (A3=>3)
CI50 growth inhibition (RL): S (S=0.01 to <0.5)
CI50 inhibition (RL): S (S=0.01 to <0.5)
Synergy Score growth inhibition (RL): A3 (A3=>3)
Synergy Score inhibition (RL): A3 (A3=>3)
CI50 growth inhibition (KARPAS-422): U (U=0.7 to <1)
CI50 inhibition (KARPAS-422): U (U=0.7 to <1)
Synergy Score growth inhibition (KARPAS-422): A3 (A3=>3)
Synergy Score inhibition (KARPAS-422): A3 (A3=>3)
